Assays:
Assay type in all cases: cell-based
PKA = target: T1, PKA (Homo sapiens, UniProt P17612); assay: Multiplexed biosensor imaging in HEK293T cells: PKA activity (red/far-red HaloTag-AKAR); details: HEK293T cells co-expressing yellow/far-red HaloTag-EKAR and red/far-red HaloTag-AKAR; 100 ng/mL hEGF; Fsk and 100 μM IBMX together; M H89
T1 construct: endogenous in cells; host or cells: HEK293T; only the biosensors are transfected
Method: (§1) Cell culture and transfection HeLa and HEK293T cells were cultured in Dulbecco's modified Eagle medium (DMEM; Gibco) containing glucose (1 g/L) and supplemented with 10% (v/v) fetal bovine serum (Sigma-Aldrich) and 1% (v/v) penicillin-streptomycin (Pen-Strep; Sigma-Aldrich). NIH3T3 cells were cultured in DMEM (Gibco) containing glucose (1 g/L) and supplemented with 10% (v/v) fetal calf serum and 1% (v/v) Pen-Strep (Sigma-Aldrich). All cells were maintained in a humidified incubator at 37° C. with a 5% CO2 atmosphere. Before transfection, cells were plated onto sterile quartered 35-mm glass-bottomed dishes and grown to 50 to 70% confluence. Cells were then transfected using Lipofectamine 2000 (Invitrogen, HeLa) or PolyJet (SignaGen Laboratories, HEK293T and NIH3T3) and grown an additional 48 hours (HeLa, HEK293T) before imaging. NIH3T3 cells were changed to serum-free DMEM immediately before transfection, medium was changed to complete medium after 6 h. NIH3T3 cells were then serum-starved for 24 hours before imaging. HaloTag labeling was performed 24 h before imaging using synthetic fluorophores (Fluorophore-CA 500 nM, 24 h, 37° C.) in the respective medium. Synthetic fluorophores were kindly provided by Luke Lavis (Janelia Research Campus, JF669-CA, JFX646-CA and JF635) or Kai Johnsson (Max Planck Institute for Medical Research (Germany) and EPFL (Switzerland), NGD-CA). […]

protein kinase A (PKA) = assay: FRET-based AKAR imaging of PKA activity in HeLa cells upon Fsk/IBMX stimulation
Description: In order to generate KARs that are both bright and photostable, we replaced one of the FPs in the prototypic FRET-based A kinase activity reporter AKAR4 with the self-labeling protein tag HaloTag, which can be flexibly labeled with synthetic fluorophores in different spectral regions. Here, we used a specific green-yellow HaloTag fluorophore (NGD, Table 1)^[12]. To identify the best FRET acceptor for HaloTag^(NGD), we selected a panel of 12 different RFPs with different excitation and emission properties. Given that the FRET efficiency depends not only on the distance between the donor and the acceptor fluorophore, but also on their relative orientation[^13], we tested two different domain orientations (HaloTag-RFP or RFP-HaloTag) and two different linker lengths (flexible linker with 14 amino acids or EV linker with 116 amino acids^[14], FIG. 1A). […] The 48 biosensors were transfected into HeLa cells, the HaloTag labeled with NGD, and the cells stimulated with 50 i.iM forskolin (Fsk) and 100 i.iM 3-isobutyl-1-methylxanthine (IBMX, FIG. 1B). […] We used NGD to label cpHaloTag and measured their response upon Fsk/IBMX stimulation. […] We overexpressed the reporters in HeLa cells and monitored changes in PKA activity after stimulation with 50 tM Fsk and 100 tM IBMX. […] We additionally quantified the on and off kinetics of the biosensor. […]

ERK = assay: Multiplexed biosensor imaging in HEK293T cells: ERK activity (yellow/far-red HaloTag-EKAR); details: HEK293T cells co-expressing yellow/far-red HaloTag-EKAR and red/far-red HaloTag-AKAR; 100 ng/mL hEGF
Method: as §1

Row | SMILES | PKA activity (PKA) | FRET/yellow emission ratio after addition of H89 (protein kinase A (PKA); HeLa cells expressing RFP-HaloTag^(NGD) AKARs, H89 added after 8 minutes of Fsk/IBMX stimulation) | normalized FRET/donor ratio after addition of H89 (protein kinase A (PKA); HeLa cells expressing YFP-HaloTag^(JF669) AKARs, after 50 μM Fsk and 100 μM IBMX) | ERK activity (ERK)
1 | O=S(=O)(NCCNC/C=C/c1ccc(Br)cc1)c1cccc2cnccc12 [H89] | decrease in PKA activity | FRET/yellow emission ratio of most biosensors decreased | reversible | –
2 | O=C(Nc1ccc2[nH]nc(-c3ccncc3)c2c1)[C@@H]1CCN(CC(=O)N2CCN(c3ccc(-c4ncccn4)cc3)CC2)C1 [SCH772984] | – | – | – | only decreased ERK activity
3 | CC(C)Cn1c(=O)n(C)c(=O)c2[nH]cnc21 [IBMX, 3-isobutyl-1-methylxanthine] | rapid increase in PKA activity | – | – | –

From patent US20260235593A1, “FRET BIOSENSOR RECOMBINANT PROTEINS” (The Regents of the University of California, priority 2023, published 2026)
